From US20090137499A1, “BENZYLPHENYL GLUCOPYRANOSIDE DERIVATIVE” (priority 2006, published 2009)

target: T1, human SGLT2 (Homo sapiens, UniProt P31639); experiment: Determination of SGLT2 inhibiting activity using human SGLT2 expressing cell ([14C]-α-methyl-D-glucopyranoside uptake); type: cell-based; settings: HEK-SGLT2 cells, 1 mM [14C]-α-methyl-D-glucopyranoside, 37° C., 30 min
T1 construct: expressed in transfected cells
T1 sequence (P31639 1-672): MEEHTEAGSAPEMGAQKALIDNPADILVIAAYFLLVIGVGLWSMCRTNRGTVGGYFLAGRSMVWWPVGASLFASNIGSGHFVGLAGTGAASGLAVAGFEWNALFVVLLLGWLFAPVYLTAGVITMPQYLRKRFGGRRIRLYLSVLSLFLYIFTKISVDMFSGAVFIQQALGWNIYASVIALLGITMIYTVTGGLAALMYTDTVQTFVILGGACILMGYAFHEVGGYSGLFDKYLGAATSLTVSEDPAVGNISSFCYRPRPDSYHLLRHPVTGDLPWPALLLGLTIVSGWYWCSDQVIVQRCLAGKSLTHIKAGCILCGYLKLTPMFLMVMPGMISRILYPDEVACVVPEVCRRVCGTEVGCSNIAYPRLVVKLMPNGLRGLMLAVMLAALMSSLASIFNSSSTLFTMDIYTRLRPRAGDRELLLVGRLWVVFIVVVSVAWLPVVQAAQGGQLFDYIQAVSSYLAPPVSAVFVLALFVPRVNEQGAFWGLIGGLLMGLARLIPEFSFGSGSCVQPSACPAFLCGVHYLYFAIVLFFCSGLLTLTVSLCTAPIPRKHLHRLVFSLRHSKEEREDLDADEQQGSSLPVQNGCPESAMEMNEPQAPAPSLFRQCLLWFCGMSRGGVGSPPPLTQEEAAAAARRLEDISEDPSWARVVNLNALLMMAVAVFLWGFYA
Description: Determination of SGLT2 Inhibiting Activity Using Human SGLT2 Expressing Cell
1) Preparation of Vector Expressing Human SGLT2 cDNA in Animal Cell
Amplification was performed by PCR using human SGLT2 cDNA clone (Origene: Clone Number, TC303267; GenBank accession number, NM 003041) as a template. The sense oligonucleotide primer for PCR was 5′-[…]-3′ (Primer 3: SEQ ID NO: 3 in the sequence listing),
and the antisense oligonucleotide primer was 5′-[…]-3′ (Primer 4: SEQ ID NO: 4 in the sequence listing). The PCR product was subjected to agarose electrophoresis, then a target DNA fragment was recovered from a single band corresponding to 2037 bases, digested with restriction enzymes HindIII and XhoI, and introduced into the HindIII/XhoI site of vector pCMV-Script (Stratagene) to obtain SGLT2 expressing plasmid pCMV-SGLT2. A HindIII/XhoI fragment was excised from pCMV-SGLT2 and introduced into the BamHI/XhoI site of pENTR1A (Gateway, Invitrogen) to prepare pENTR-SGLT2. Retrovirus vector pLPCX (Clontech) into which Gateway Vector Conversion System Cassette A (Invitrogen) was introduced was used as the destination plasmid to prepare SGLT2 expressing retrovirus vector pLPCX-SGLT2.
2) Establishment of Human SGLT2 Expressing Cell
The retrovirus pLPCX-SGLT2 obtained in 1) was transfected into integrin αvβ3 expressing HEK-293 cells, the cells were treated with antibiotic G418 (brand name, Geneticin: Invitrogen) and puromycin (Clontech) to obtain HEK-SGLT2 cells stably expressing the target vector having resistance. The stably expressing cells were cultured and maintained in DMEM medium containing […] G418, […] puromycin, 3 mM KGT-1075, and 10% FBS.
3) Determination of SGLT2 Inhibiting Activity
HEK-SGLT2 cells were suspended at a density of 10^6 cells/mL in DMEM medium containing 250 mg/mil G418, 1 mg/ml puromycin, and 10% FBS, and 100 μL was seeded in each well of a type 1 collagen-coated 96-well culture plate (Corning). On the following day, the medium was replaced with a sugar uptake buffer (10 mM HEPES [pH 7.5], 5 mM Tris-HCl [pH 7.5], 140 mM NaCl, 2 mM KCl, 1 mM CaCl2, 1 mM MgCl2), and the cells were cultured with 1 mM [^14C]-α-methyl-D-glucopyranoside (0.1 mCi) and a test compound at 37° C. for 30 min, and then washed 3 times with a washing buffer (10 mM HEPES (pH 7.5), 5 mM Tris-HCl (pH 7.5), 140 mM choline chloride, 2 mM KCl, 1 mM CaCl2, 1 mM MgCl2). 100 μL of liquid scintillation cocktail (brand name, Supermix: Perkin-Elmer) was added to each well of the 96-well plate and stirred for 10 min, and then radioactivity was determined with micro β (Perkin-Elmer), a type of liquid scintillation counter. The value obtained by deducting the radioactivity in the presence of an excess amount of an SGLT2 inhibiting compound as the background from each measured value was taken as the sugar uptake activity, the inhibition rate (%) was calculated from the control sugar uptake activity obtained without using a test compound and the sugar uptake activity obtained using a test compound having a predetermined concentration, and the concentrations of the test compound at which the sugar uptake activity was inhibited by 50% were assessed.

Q: How did the IC50 turn out when COc1ccc(Cc2c(F)cc(CO)cc2O[C@@H]2O[C@H](CO)C[C@H](O)[C@H]2O)cc1 [Example 85, 3-Fluoro-5-hydroxymethyl-2-(4-methoxybenzyl)phenyl 4-deoxy-β-D-glucopyranoside] was run?
A: The IC50 was 20 nM.

Q: How did the IC50 turn out when COc1ccc(Cc2c(Cl)cc(CO)cc2O[C@@H]2O[C@](C)(CO)[C@@H](O)[C@H](O)[C@H]2O)cc1 [Example 55, 3-Chloro-5-hydroxymethyl-2-(4-methoxybenzyl)phenyl 5-C-methyl-β-D-glucopyranoside] was run?
A: The IC50 was 10 nM.

Q: Which IC50 does the source give for CCOc1ccc(Cc2ccc(COC(=O)CO)cc2O[C@@H]2O[C@H]([C@@H](C)O)[C@@H](O)[C@H](O)[C@H]2O)cc1 [Example 99, 5-Hydroxyacetyloxymethyl-2-(4-ethoxybenzyl)phenyl 7-deoxy-D-glycero-β-D-gluco-heptopyranoside] here?
A: Its IC50 is 272 nM.

Q: COc1ccc(Cc2ccc(N)cc2O[C@@H]2O[C@H](CO)[C@@](C)(O)[C@H](O)[C@H]2O)cc1 [Example 64, 5-Amino-2-(4-methoxybenzyl)phenyl 4-C-methyl-β-D-glucopyranoside] was tested. Which IC50 did it give?
A: Its IC50 is 13 nM.

Q: Which IC50 does the source give for COc1ccc(Cc2c(Cl)cc(CO)cc2O[C@@H]2O[C@H](CO)[C@@](C)(O)[C@H](O)[C@H]2O)cc1 [Example 56, 3-Chloro-5-hydroxymethyl-2-(4-methoxybenzyl)phenyl 4-C-methyl-β-D-glucopyranoside] here?
A: Its IC50 is 11 nM.

Q: How did the IC50 turn out when COc1ccc(Cc2ccc(N)cc2O[C@@H]2O[C@H](CO)C[C@H](O)[C@H]2O)cc1 [Example 65, 5-Amino-2-(4-methoxybenzyl)phenyl 4-deoxy-β-D-glucopyranoside] was run?
A: The IC50 was 20 nM.

Q: With COc1ccc(Cc2c(Cl)cc(CO)cc2O[C@@H]2O[C@H](CO)C[C@H](O)[C@H]2O)cc1 [Example 86, 3-Chloro-5-hydroxymethyl-2-(4-methoxybenzyl)phenyl 4-deoxy-β-D-glucopyranoside] as the compound, how does the IC50 read?
A: Its IC50 is 19 nM.
